The text below walks through data of patent publication US10640534B2 (Agios Pharmaceuticals, Inc., priority 2012, dated 2020).

In this experiment the test system is U87MG cells. Briefly: Cellular assay, inhibition of 2-HG production in U87MG cells. The class given is cell-based. As to conditions: Homo sapiens, U-87 MG, 48 h. The method, boiled down:
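HT1080 or U87MG cells (U87MG kept with 500 ug/mL G418) seeded at 5000 cells/well and treated with compound at 0.2% final DMSO. Incubated 48 h at 37 °C. 2-HG inhibition determined by LC-MS. Viability read by CellTiter-Glo luminescence at 72 h post-dose.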

By IC50 is commonly meant the midpoint of a concentration-inhibition curve. High values mean a need for much substance, low ones inhibition by little substance.

Compound `CCOC(=O)CN1CC(=O)N(c2cc(C#N)ccn2)[C@H](C(=O)N(c2cc(F)cc(F)c2)[C@H](C(=O)NC2CC(F)(F)C2)c2ccccc2Cl)C1` [Compound 104] had an IC50 of less than 100 nM.

For `N#Cc1ccnc(N2C(=O)CC[C@H]2C(=O)N(c2cccc(F)c2)[C@H](C(=O)NC2CC(F)(F)C2)c2ccccc2Cl)n1` [Compound 68, (S)—N—((S)-1-(2-Chlorophenyl)-2-((3,3-difluorocyclobutyl)amino)-2-oxoethyl)-1-(4-cyanopyrimidin-2-yl)-N-(3-fluorophenyl)-5-oxopyrrolidine-2-carboxamide], the half-maximal inhibitory concentration (IC50) was less than 100 nM.

Compound `N#Cc1ccnc(N2C(=O)[C@H](O)C[C@H]2C(=O)N(c2cc(F)cc(F)c2)[C@H](C(=O)NC2CCC(F)(F)CC2)c2ccccc2Cl)c1` [Compound 125, (2S,4R)—N—((S)-1-(2-Chlorophenyl)-2-(4,4-difluorocyclohexylamino)-2-oxoethyl)-1-(4-cyanopyridin-2-yl)-N-(3,5-difluorophenyl)-4-hydroxy-5-oxopyrrolidine-2-carboxamide] gave an IC50 of less than 100 nM.

As for `O=C(NC1CC(F)(F)C1)[C@H](c1ccccc1Cl)N(C(=O)[C@@H]1CCC(=O)N1c1cc(Cl)ccn1)c1cccc(F)c1` [Compound 33], the 50% inhibitory concentration (IC50) fell in the range of 100 to 500 nM.

`N#Cc1ccnc(N2C(=O)[C@@H](O)C[C@H]2C(=O)N(c2cccc(F)c2)[C@H](C(=O)NC2CCC(F)(F)CC2)c2ccccc2Cl)n1` [Compound 189, (2S,4S)—N—((S)-1-(2-Chlorophenyl)-2-((4,4-difluorocyclohexyl)amino)-2-oxoethyl)-1-(4-cyanopyrimidin-2-yl)-N-(3-fluorophenyl)-4-hydroxy-5-oxopyrrolidine-2-carboxamide] came in with an IC50 of less than 100 nM.

As for `CCOC(=O)CN1C[C@@H](C(=O)N(c2cccc(F)c2)C(C(=O)NC2CC(F)(F)C2)c2ccccc2Cl)N(c2cc(C#N)ccn2)C1=O` (stereo partly drawn) [Compound 94, Ethyl 2-((4S)-4-((1-(2-chlorophenyl)-2-((3,3-difluorocyclobutyl)amino)-2-oxoethyl)(3-fluorophenyl)carbamoyl)-3-(4-cyanopyridin-2-yl)-2-oxoimidazolidin-1-yl)acetate], the IC50 is less than 100 nM.

Consider `N#Cc1ccnc(N2C(=O)CC[C@H]2C(=O)N(c2cc(F)cc(C3CC3)c2)[C@H](C(=O)NC2CC(F)(F)C2)c2ccccc2Cl)c1` [Compound 204, (S)—N—((S)-1-(2-Chlorophenyl)-2-((3,3-difluorocyclobutyl)amino)-2-oxoethyl)-1-(4-cyanopyridin-2-yl)-N-(3-cyclopropyl-5-fluorophenyl)-5-oxopyrrolidine-2-carboxamide], for which the IC50 is less than 100 nM.

For `O=C(NC1CC(F)(F)C1)[C@H](c1ccccc1Cl)N(C(=O)[C@@H]1CCC(=O)N1c1ccc(F)cn1)c1cccc(F)c1` [Compound 29], the IC50 was less than 100 nM.

`N#Cc1cc(F)cc(N(C(=O)[C@@H]2C[C@@H](O)C(=O)N2c2cc(C#N)ccn2)C(C(=O)NC2CC(F)(F)C2)c2ccccc2Cl)c1` (stereo partly drawn) [Compound 169, (2S,4R)—N-(1-(2-Chlorophenyl)-2-(3,3-difluorocyclobutylamino)-2-oxoethyl)-N-(3-cyano-5-fluorophenyl)-1-(4-cyanopyridin-2-yl)-4-hydroxy-5-oxopyrrolidine-2-carboxamide]: the IC50 is less than 100 nM.

The compound `N#Cc1ccnc(N2C(=O)CC[C@H]2C(=O)N(c2cc(F)cc(F)c2)[C@H](C(=O)NC2CC(F)(F)C2)c2ccccc2Cl)n1` [Compound 86, (S)—N—((S)-1-(2-Chlorophenyl)-2-((3,3-difluorocyclobutyl)amino)-2-oxoethyl)-1-(4-cyanopyrimidin-2-yl)-N-(3,5-difluorophenyl)-5-oxopyrrolidine-2-carboxamide] returned an IC50 of less than 100 nM.
